{"source": "patent US10689414B2", "about": "(Agios Pharmaceuticals, Inc., priority 2013, dated 2020)"}
{"test_system": "U87MG cells", "experiment": "Cellular assay, inhibition of 2-HG production in U87MG cells", "assay_type": "cell-based", "settings": "Homo sapiens, U-87 MG, 48 h", "protocol": "Cells (HT1080 or U87MG) are grown in T125 flasks in DMEM containing 10% FBS, 1× penicillin/streptomycin and 500 ug/mL G418 (present in U87MG cells only). They are harvested by trypsin and seeded into 96 well white bottom plates at a density of 5000 cell/well in 100 ul/well in DMEM with 10% FBS. […] Cells are incubated overnight at 37° C. in 5% CO2. The next day test compounds are made up at 2× the final concentration and 100 ul are added to each cell well. The final concentration of DMSO is 0.2% and the DMSO control wells are plated in row G. The plates are then placed in the incubator for 48 hours. […] The cell plate is placed back in the incubator for another 24 hours. At 72 hours post compound addition, 10 mL/plate of Promega Cell Titer Glo reagent is thawed and mixed. The cell plate is removed from the incubator and allowed to equilibrate to room temperature. Then 100 ul of Promega Cell Titer Glo reagent is added to each well of media. The cell plate is then placed on an orbital shaker for 10 minutes and then allowed to sit at room temperature for 20 minutes. The plate is then read for luminescence with an integration time of 500 ms.", "units": {"IC50": "nM"}}
{"smiles": "O=C(NC1CCC(F)(F)C1)C(c1ccccc1Cl)N(C(=O)[C@@H]1CCC(=O)N1c1ncccn1)c1cccc(F)c1", "note": "(mixture of isomers) [Compound 73, (2S)—N-(1-(2-Chlorophenyl)-2-((3,3-difluorocyclopentyl)amino)-2-oxoethyl)-N-(3-fluorophenyl)-5-oxo-1-(pyrimidin-2-yl)pyrrolidine-2-carboxamide]", "IC50": "< 100"}
{"smiles": "N#Cc1ccnc(N2C(=O)OCC[C@H]2C(=O)N(c2cccc(F)c2)C(C(=O)NC2CC(F)(F)C2)c2ccccc2Cl)c1", "note": "(mixture of isomers) [Compound 90, (4S)—N-(1-(2-Chlorophenyl)-2-(3,3-difluorocyclobutylamino)-2-oxoethyl)-3-(4-cyanopyridin-2-yl)-N-(3-fluorophenyl)-2-oxo-1,3-oxazinane-4-carboxamide]", "IC50": "< 100"}
{"smiles": "CS(=O)(=O)c1cccc(N(C(=O)[C@@H]2CCC(=O)N2c2nccc(C#N)n2)C(C(=O)NC2CC(F)(F)C2)c2ccccc2Cl)c1", "note": "(mixture of isomers) [Compound 102, (2S)—N-(1-(2-Chlorophenyl)-2-((3,3-difluorocyclobutyl)amino)-2-oxoethyl)-1-(4-cyanopyrimidin-2-yl)-N-(3-(methylsulfonyl)phenyl)-5-oxopyrrolidine-2-carboxamide]", "IC50": "100 to 500"}
{"smiles": "CC(C)(O)c1cc(F)cc(N(C(=O)[C@@H]2COC(=O)N2c2cc(C#N)ccn2)C(C(=O)NC2CC(F)(F)C2)c2ccccc2Cl)c1", "note": "(mixture of isomers) [Compound 145, (4S)—N-(1-(2-Chlorophenyl)-2-(3,3-difluorocyclobutylamino)-2-oxoethyl)-3-(4-cyanopyridin-2-yl)-N-(3-fluoro-5-(2-hydroxypropan-2-yl)phenyl)-2-oxooxazolidine-4-carboxamide]", "IC50": "< 100"}
{"smiles": "N#Cc1cc(F)cc(N(C(=O)[C@@H]2C[C@@H](O)C(=O)N2c2cc(C#N)ccn2)C(C(=O)NC2CC(F)(F)C2)c2ccccc2Cl)c1", "note": "(mixture of isomers) [Compound 169, (2S,4R)—N-(1-(2-Chlorophenyl)-2-(3,3-difluorocyclobutylamino)-2-oxoethyl)-N-(3-cyano-5-fluorophenyl)-1-(4-cyanopyridin-2-yl)-4-hydroxy-5-oxopyrrolidine-2-carboxamide]", "IC50": "< 100"}
{"smiles": "N#Cc1ccnc(N2C(=O)CC[C@H]2C(=O)N(c2cccc(-c3cn[nH]c3)c2)[C@H](C(=O)NC2CC(F)(F)C2)c2ccccc2Cl)c1", "note": "(single isomer, unassigned) [Compound 200]", "IC50": "< 100"}
{"smiles": "O=C(NC1CC(F)(F)C1)C(c1ccccc1Cl)N(C(=O)[C@@H]1CCCC(=O)N1c1ncccn1)c1cccc(F)c1", "note": "(stereo in doubt) [Compound 20, (S)—N—((R)-1-(2-Chloro-phenyl)-2-((3,3-difluorocyclobutyl)amino)-2-oxoethyl)-N-(3-fluoro-phenyl)-6-oxo-1-(pyrimidin-2-yl)piperidine-2-carboxamide]", "IC50": "100 to 500"}
{"smiles": "C[C@]1(O)C[C@@H](C(=O)N(c2cccc(F)c2)[C@H](C(=O)NC2CC(F)(F)C2)c2ccccc2Cl)N(c2cc(C#N)ccn2)C1=O", "note": "(stereo in doubt) [Compound 183, (2S)—N—((R)-1-(2-chlorophenyl)-2-(3,3-difluorocyclobutylamino)-2-oxoethyl)-1-(4-cyanopyridin-2-yl)-N-(3-fluorophenyl)-4-hydroxy-4-methyl-5-oxopyrrolidine-2-carboxamide]", "IC50": "< 100"}
{"smiles": "O=C(NC1CCC(F)(F)CC1)[C@H](c1ccccc1Cl)N(C(=O)[C@@H]1CCC(=O)N1c1ncccn1)c1cccc(F)c1", "note": "[Compound 4, (S)—N—((S)-1-(2-chlorophenyl)-2-((4,4-difluorocyclohexyl)amino)-2-oxoethyl)-N-(3-fluoro-phenyl)-5-oxo-1-(pyrimidin-2-yl)pyrrolidine-2-carboxamide]", "IC50": "< 100"}
{"smiles": "O=C(NC1CCCCC1)[C@H](c1ccccc1Cl)N(C(=O)[C@@H]1CCC(=O)N1c1ncccn1)c1cccc(F)c1", "note": "[Compound 7]", "IC50": "< 100"}
{"smiles": "O=C(NC1CC(F)(F)C1)[C@H](c1ccccc1Cl)N(C(=O)[C@@H]1COC(=O)N1c1ncccn1)c1cccc(F)c1", "note": "[Compound 9, (S)—N—((S)-1-(2-chloro-phenyl)-2-(3,3-difluorocyclo-butylamino)-2-oxoethyl)-N-(3-fluoro-phenyl)-2-oxo-3-(pyrimidin-2-yl)oxazolidine-4-carboxamide]", "IC50": "< 100"}
{"smiles": "O=C(NC1CC(F)(F)C1)[C@H](c1ccccc1Cl)N(C(=O)[C@@H]1CCC(=O)N1c1nccs1)c1cccc(F)c1", "note": "[Compound 14]", "IC50": "100 to 500"}
{"smiles": "O=C(NC1CC(F)(F)C1)[C@H](c1ccccc1Cl)N(C(=O)[C@@H]1CCC(=O)N1c1cnccn1)c1cccc(F)c1", "note": "[Compound 18]", "IC50": "< 100"}
{"smiles": "Cc1ccc(N2C(=O)CC[C@H]2C(=O)N(c2cccc(F)c2)[C@H](C(=O)NC2CC(F)(F)C2)c2ccccc2Cl)nc1", "note": "[Compound 21]", "IC50": "100 to 500"}
{"smiles": "O=C(NC1CC(F)(F)C1)C(c1ccccc1Cl)N(C(=O)[C@@H]1CCC(=O)N1c1ccccc1)c1cccc(F)c1", "note": "(stereo partly shown) [Compound 23]", "IC50": "100 to 500"}
{"smiles": "O=C(NC1CC(F)(F)C1)[C@H](c1ccccc1Cl)N(C(=O)[C@@H]1CCC(=O)N1c1ccc(F)cn1)c1cccc(F)c1", "note": "[Compound 29]", "IC50": "< 100"}
{"smiles": "O=C(NC1CC(F)(F)C1)[C@H](c1ccccc1Cl)N(C(=O)[C@@H]1COCC(=O)N1c1ncccn1)c1cccc(F)c1", "note": "[Compound 30, (S)—N—((S)-1-(2-chlorophenyl)-2-((3,3-difluorocyclobutyl)amino)-2-oxoethyl)-N-(3-fluorophenyl)-5-oxo-4-(pyrimidin-2-yl)morpholine-3-carboxamide]", "IC50": "100 to 500"}
{"smiles": "O=C(NC1CC(F)(F)C1)[C@H](c1ccccc1Cl)N(C(=O)[C@@H]1CCC(=O)N1c1cc(Cl)ccn1)c1cccc(F)c1", "note": "[Compound 33]", "IC50": "100 to 500"}
{"smiles": "N#Cc1ccnc(N2C(=O)CC[C@H]2C(=O)N(c2cccc(F)c2)[C@H](C(=O)NC2CC(F)(F)C2)c2ccccc2Cl)c1", "note": "[Compound 37]", "IC50": "< 100"}
{"smiles": "O=C(NC1CC(F)(F)C1)[C@H](c1ccccc1Cl)N(C(=O)[C@@H]1CCC(=O)N1c1cscn1)c1cccc(F)c1", "note": "[Compound 43, (S)—N—((S)-1-(2-Chlorophenyl)-2-(3,3-difluorocyclobutylamino)-2-oxoethyl)-N-(3-fluorophenyl)-5-oxo-1-(thiazol-4-yl)pyrrolidine-2-carboxamide]", "IC50": "< 100"}
{"smiles": "N#Cc1ccc(N2C(=O)CC[C@H]2C(=O)N(c2cccc(F)c2)[C@H](C(=O)NC2CC(F)(F)C2)c2ccccc2Cl)nc1", "note": "[Compound 47]", "IC50": "100 to 500"}
{"smiles": "O=C(NC1CC(F)(F)C1)C(c1c(Cl)cccc1Cl)N(C(=O)[C@@H]1CCC(=O)N1c1ncccn1)c1cccc(F)c1", "note": "(stereo partly shown) [Compound 51]", "IC50": "100 to 500"}
{"smiles": "N#Cc1ccnc(N2C(=O)CC[C@H]2C(=O)N(c2cccc(F)c2)[C@H](C(=O)NC2CCC(F)(F)CC2)c2ccccc2Cl)c1", "note": "[Compound 53]", "IC50": "< 100"}
{"smiles": "N#Cc1ccnc(N2C(=O)CCC[C@H]2C(=O)N(c2cccc(F)c2)[C@H](C(=O)NC2CC(F)(F)C2)c2ccccc2Cl)c1", "note": "[Compound 55, (S)—N—((S)-1-(2-Chlorophenyl)-2-(3,3-difluorocyclobutylamino)-2-oxoethyl)-1-(4-cyanopyri-din-2-yl)-N-(3-fluorophenyl)-6-oxopiperidine-2-carboxamide]", "IC50": "< 100"}
{"smiles": "O=C(NC1CCC(F)(F)CC1)[C@H](c1ccccc1Cl)N(C(=O)[C@@H]1CCC(=O)N1c1cnccn1)c1cccc(F)c1", "note": "[Compound 58, (S)—N—((S)-1-(2-Chlorophenyl)-2-(4,4-difluorocyclohexylamino)-2-oxoethyl)-N-(3-fluorophenyl)-5-oxo-1-(pyrazin-2-yl)pyrrolidine-2-carboxamide]", "IC50": "< 100"}
{"smiles": "N#Cc1ccnc(N2C(=O)CC[C@H]2C(=O)N(c2cccc(F)c2)[C@H](C(=O)NC2CC(F)(F)C2)c2ccccc2Cl)n1", "note": "[Compound 68, (S)—N—((S)-1-(2-Chlorophenyl)-2-((3,3-difluorocyclobutyl)amino)-2-oxoethyl)-1-(4-cyanopyrimidin-2-yl)-N-(3-fluorophenyl)-5-oxopyrrolidine-2-carboxamide]", "IC50": "< 100"}
{"smiles": "N#Cc1cccnc1N1C(=O)CC[C@H]1C(=O)N(c1cccc(F)c1)[C@H](C(=O)NC1CC(F)(F)C1)c1ccccc1Cl", "note": "[Compound 69, (S)—N—((S)-1-(2-Chlorophenyl)-2-((3,3-difluorocyclobutyl)amino)-2-oxoethyl)-1-(3-cyanopyri-din-2-yl)-N-(3-fluorophenyl)-5-oxopyrrolidine-2-carboxamide]", "IC50": "< 100"}
{"smiles": "O=C(NC1CC(F)(F)C1)[C@H](c1ccccc1Cl)N(C(=O)[C@@H]1CCC(=O)N1c1ncccn1)c1cc(F)cc(F)c1", "note": "[Compound 70, (S)—N—((S)-1-(2-Chlorophenyl)-2-((3,3-difluorocyclobutyl)amino)-2-oxoethyl)-N-(3,5-difluoro-phenyl)-5-oxo-1-(pyrimidin-2-yl)pyrrolidine-2-carboxamide]", "IC50": "< 100"}
{"smiles": "N#Cc1ccnc(N2C(=O)CC[C@H]2C(=O)N(c2cc(F)cc(F)c2)[C@H](C(=O)NC2CC(F)(F)C2)c2ccccc2Cl)c1", "note": "[Compound 71, (S)—N—((S)-1-(2-Chlorophenyl)-2-((3,3-difluorocyclobutyl)amino)-2-oxoethyl)-1-(4-cyanopyridin-2-yl)-N-(3,5-difluorophenyl)-5-oxopyrrolidine-2-carboxamide]", "IC50": "< 100"}
{"smiles": "O=C(NC1CC(F)(F)C1)[C@H](c1ccccc1Cl)N(C(=O)[C@@H]1COC(=O)N1c1cscn1)c1cccc(F)c1", "note": "[Compound 72]", "IC50": "< 100"}
{"smiles": "N#Cc1ccnc(N2C(=O)CCC[C@H]2C(=O)N(c2cccc(F)c2)[C@H](C(=O)NC2CCC(F)(F)CC2)c2ccccc2Cl)c1", "note": "[Compound 75, (S)—N—((S)-1-(2-Chlorophenyl)-2-((4,4-difluorocyclohexyl)amino)-2-oxoethyl)-1-(4-cyano-pyridin-2-yl)-N-(3-fluorophenyl)-6-oxopiperidine-2-carboxamide]", "IC50": "< 100"}
